Laboratory results taken from US12077503B2, “Substituted cyclic amides and their use as herbicides” (FMC CORPORATION, priority 2015, dated 2024).

Assays:
Format in all cases: in vivo
[1] = system: Kochia (Kochia scoparia); test: Test A preemergence
How it was run: (§1)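 Treatment is preemergence as a directed soil spray after planting, or postemergence at the one- to two-leaf stage, with test chemical in a non-phytotoxic solvent mixture plus surfactant. Plants stay in the greenhouse about 10 d before visual injury scoring on a 0 to 100 scale versus untreated controls.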

[2] = system: barnyardgrass (Echinochloa crus-galli); test: Test A preemergence
How it was run: as §1

[3] = system: giant foxtail (Setaria faberii); test: Test A preemergence
How it was run: as §1

[4] = system: pigweed (Amaranthus retroflexus); test: Test A preemergence
[5] = system: ragweed (common ragweed, Ambrosia elatior); test: Test A preemergence
How it was run: as §1

[6] = system: ryegrass, Italian (Italian ryegrass, Lolium multiflorum); test: Test A preemergence
How it was run: as §1

[7] = system: Galium (catchweed bedstraw, Galium aparine); test: Test A postemergence; settings: postemergence
How it was run: as §1

[8] = system: Kochia (Kochia scoparia); test: Test A postemergence; settings: postemergence
How it was run: as §1

[9] = system: barnyardgrass (Echinochloa crus-galli); test: Test A postemergence; settings: postemergence
How it was run: as §1

[10] = system: blackgrass (Alopecurus myosuroides); test: Test A postemergence; settings: postemergence
How it was run: as §1

[11] = system: corn (Zea mays); test: Test A postemergence; settings: postemergence
How it was run: as §1

[12] = system: giant foxtail (Setaria faberii); test: Test A postemergence; settings: postemergence
How it was run: as §1

[13] = system: pigweed (Amaranthus retroflexus); test: Test A postemergence; settings: postemergence
How it was run: as §1

[14] = system: ragweed (common ragweed, Ambrosia elatior); test: Test A postemergence; settings: postemergence
How it was run: as §1

[15] = system: ryegrass, Italian (Italian ryegrass, Lolium multiflorum); test: Test A postemergence; settings: postemergence
How it was run: as §1

[16] = system: wheat (Triticum aestivum); test: Test A postemergence; settings: postemergence
How it was run: as §1

[17] = system: barnyardgrass (Echinochloa crus-galli); test: Test B flooded paddy test; settings: Flood, 500 g ai/ha; 0 to 100 scale where 0 is no effect and 100 is complete control; 13 to 15 d
How it was run: (§2)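 Compound goes directly into floodwater once pots are flooded 3 cm above soil, targeting plants at two leaves; the water depth is then held for the test duration. Plants sit 13–15 d in a greenhouse and are rated visually, 100 denoting complete control.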

[18] = system: ducksalad (Heteranthera limosa); test: Test B flooded paddy test; settings: Flood, 500 g ai/ha; 0 to 100 scale where 0 is no effect and 100 is complete control; 13 to 15 d
How it was run: as §2

[19] = system: rice (Oryra sativa); test: Test B flooded paddy test; settings: Flood, 500 g ai/ha; 0 to 100 scale where 0 is no effect and 100 is complete control; 13 to 15 d
How it was run: as §2

[20] = system: sedge, umbrella (small-flower umbrella sedge, Cyperus difformis); test: Test B flooded paddy test; settings: Flood, 500 g ai/ha; 0 to 100 scale where 0 is no effect and 100 is complete control; 13 to 15 d
How it was run: as §2

[21] = 125 g ai/ha, preemergence, 0 to 100 scale (0 no effect, 100 complete control)
[22] = Preemergence, 500 g ai/ha, visual injury approx. 10 d
[23] = 125 g ai/ha, visual injury rating on 0 to 100 scale (0 no effect, 100 complete control), approx. 10 d
[24] = 500 g ai/ha, 0 to 100 scale, 0 no effect, 100 complete control

Q: Cc1cccc(NC(=O)C2C(=O)NCC2c2cccc(OC(F)F)c2)c1F (stereo not drawn) [Compound 420] was tested. Which “Plant response rating, Kochia” value [1, 21] did it give?
A: 0

Q: What about the “Kochia plant response rating (0 to 100 scale, 0 is no effect, 100 is complete control)” value [1, 22] of the same molecule?
A: 30

Q: What about the “Plant response rating, Barnyardgrass” value [2, 21] of the same molecule?
A: 70

Q: What about the “Barnyardgrass plant response rating (0 to 100 scale, 0 is no effect, 100 is complete control)” value [2, 22] of the same molecule?
A: 90

Q: And the “Plant response rating, Foxtail, Giant” value [3, 21]?
A: 90

Q: What about the “Foxtail, Giant plant response rating (0 to 100 scale, 0 is no effect, 100 is complete control)” value [3, 22] of the same molecule?
A: 90

Q: And the “Plant response rating, Pigweed” value [4, 21]?
A: 0

Q: And the “Pigweed plant response rating (0 to 100 scale, 0 is no effect, 100 is complete control)” value [4, 22]?
A: 30

Q: What about the “Plant response rating, Ragweed” value [5, 21] of the same molecule?
A: 0

Q: And the “Ragweed plant response rating (0 to 100 scale, 0 is no effect, 100 is complete control)” value [5, 22]?
A: 0

Q: And the “Plant response rating, Ryegrass, Italian” value [6, 21]?
A: 0

Q: What about the “Ryegrass, Italian plant response rating (0 to 100 scale, 0 is no effect, 100 is complete control)” value [6, 22] of the same molecule?
A: 0

Q: And the “Galium plant response rating” value [7, 23]?
A: 0

Q: What about the “Plant response rating, Galium” value [7, 24] of the same molecule?
A: 0

Q: What about the “Kochia plant response rating” value [8, 23] of the same molecule?
A: 0

Q: What about the “Plant response rating, Kochia” value [8, 24] of the same molecule?
A: 0

Q: And the “Barnyardgrass plant response rating” value [9, 23]?
A: 80

Q: What about the “Plant response rating, Barnyardgrass” value [9, 24] of the same molecule?
A: 90

Q: What about the “Blackgrass plant response rating” value [10, 23] of the same molecule?
A: 0

Q: What about the “Plant response rating, Blackgrass” value [10, 24] of the same molecule?
A: 0

Q: What about the “Corn plant response rating” value [11, 23] of the same molecule?
A: 0

Q: And the “Plant response rating, Corn” value [11, 24]?
A: 0

Q: What about the “Foxtail, Giant plant response rating” value [12, 23] of the same molecule?
A: 70

Q: And the “Plant response rating, Foxtail, Giant” value [12, 24]?
A: 80

Q: And the “Pigweed plant response rating” value [13, 23]?
A: 0

Q: And the “Plant response rating, Pigweed” value [13, 24]?
A: 0

Q: What about the “Ragweed plant response rating” value [14, 23] of the same molecule?
A: 0

Q: What about the “Plant response rating, Ragweed” value [14, 24] of the same molecule?
A: 0

Q: And the “Ryegrass, Italian plant response rating” value [15, 23]?
A: 0

Q: And the “Plant response rating, Ryegrass, Italian” value [15, 24]?
A: 0

Q: And the “Wheat plant response rating” value [16, 23]?
A: 0

Q: And the “Plant response rating, Wheat” value [16, 24]?
A: 0

Q: And the “Plant response rating, Barnyardgrass” value [17]?
A: 65

Q: And the “Plant response rating, Ducksalad” value [18]?
A: 85

Q: And the “Plant response rating, Rice” value [19]?
A: 25

Q: What about the “Plant response rating, Sedge, Umbrella” value [20] of the same molecule?
A: 0
